Assay results as given in PubChem BioAssay AID248 (DTP/NCI, 2004).
“And” between values parts separate entries of the source, which are not always exact repeats. Identical values can stand only once. Toxic doses and inconclusive results are not listed. Cut-off read from the data, not from the text of the source: active = T/C of 150% or more; inactive = T/C below 125%.

Tested on: L1210 leukemia ip in BDF1 mice, survival T/C
Assay: NCI In Vivo Anticancer Drug Screen. Data for tumor model L1210 Leukemia (intraperitoneal) in B6D2F1 (BDF1) mice
Conditions: endpoint: mean survival time, higher = longer survival
Procedure, shortened: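 Tumor cells were implanted, animals were treated, and survival was followed. The result divides the treated measurement by the vehicle-control measurement.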

[1] = dose: 50.0 mg/kg/injection, schedule: Q01DX001 (ip), vehicle: carboxymethylcellulose (CMC)
[2] = dose: 100.0 mg/kg/injection, schedule: Q01DX001 (ip), vehicle: carboxymethylcellulose (CMC)
[3] = dose: 200.0 mg/kg/injection, schedule: Q01DX001 (ip), vehicle: carboxymethylcellulose (CMC)
[4] = dose: 25.0 mg/kg/injection, schedule: Q01DX009 (ip), vehicle: saline
[5] = dose: 100.0 mg/kg/injection, schedule: Q01DX009 (ip), vehicle: saline
[6] = dose: 100.0 mg/kg/injection, schedule: Q01DX009 (ip), vehicle: Klucel (hydroxypropylcellulose) (HPC)
[7] = dose: 100.0 mg/kg/injection, schedule: Q04DX003 (ip), vehicle: Klucel (hydroxypropylcellulose) (HPC)
[8] = dose: 200.0 mg/kg/injection, schedule: Q01DX009 (ip), vehicle: Klucel (hydroxypropylcellulose) (HPC)
[9] = dose: 200.0 mg/kg/injection, schedule: Q04DX003 (ip), vehicle: Klucel (hydroxypropylcellulose) (HPC)
[10] = dose: 400.0 mg/kg/injection, schedule: Q01DX009 (ip), vehicle: Klucel (hydroxypropylcellulose) (HPC)
[11] = dose: 400.0 mg/kg/injection, schedule: Q04DX003 (ip), vehicle: Klucel (hydroxypropylcellulose) (HPC)
[12] = dose: 100.0 mg/kg/injection, schedule: Q04DX003 (ip), vehicle: saline with Tween-80
[13] = dose: 200.0 mg/kg/injection, schedule: Q04DX003 (ip), vehicle: saline with Tween-80
[14] = dose: 5.0 mg/kg/injection, schedule: Q01DX001 (ip), vehicle: saline
[15] = dose: 400.0 mg/kg/injection, schedule: Q01DX001 (ip), vehicle: carboxymethylcellulose (CMC)
[16] = dose: 200.0 mg/kg/injection, schedule: Q01DX009 (ip), vehicle: saline
[17] = dose: 100.0 mg/kg/injection, schedule: Q04DX003 (ip), vehicle: saline

Measured: T/C

CCCCCCCCCC(=O)N1CCCCC1C (stereo not given)
inactive: dose: 25.0 mg/kg/injection, schedule: Q04DX002 (ip), vehicle: carboxymethylcellulose (CMC) 97 % of control and 99 % of control | [1] 93 % of control | dose: 50.0 mg/kg/injection, schedule: Q01DX009 (ip), vehicle: carboxymethylcellulose (CMC) 98 % of control and 103 % of control | dose: 50.0 mg/kg/injection, schedule: Q04DX002 (ip), vehicle: carboxymethylcellulose (CMC) 96 % of control and 97 % of control | dose: 50.0 mg/kg/injection, schedule: Q04DX003 (ip), vehicle: carboxymethylcellulose (CMC) 95 % of control | [2] 93 % of control | dose: 100.0 mg/kg/injection, schedule: Q01DX009 (ip), vehicle: carboxymethylcellulose (CMC) 94 % of control and 100 % of control | dose: 100.0 mg/kg/injection, schedule: Q04DX003 (ip), vehicle: carboxymethylcellulose (CMC) 97 % of control | [3] 96 % of control | dose: 200.0 mg/kg/injection, schedule: Q01DX009 (ip), vehicle: carboxymethylcellulose (CMC) 100 % of control and 104 % of control | dose: 200.0 mg/kg/injection, schedule: Q04DX002 (ip), vehicle: carboxymethylcellulose (CMC) 107 % of control and 92 % of control | dose: 200.0 mg/kg/injection, schedule: Q04DX003 (ip), vehicle: carboxymethylcellulose (CMC) 95 % of control | dose: 400.0 mg/kg/injection, schedule: Q04DX002 (ip), vehicle: carboxymethylcellulose (CMC) 103 % of control and 90 % of control

CC(=O)Nc1cc2c(cc1Br)-c1ccc(F)cc1C2
inactive: dose: 200.0 mg/kg/injection, schedule: Q01DX Z (ip), vehicle: saline 98 % of control | dose: 400.0 mg/kg/injection, schedule: Q01DX Z (ip), vehicle: saline 102 % of control | dose: 800.0 mg/kg/injection, schedule: Q01DX Z (ip), vehicle: saline 110 % of control

COC1C2CCC1[N+](C)(C)CC2 (stereo not given)
inactive: [4] 101 % of control | dose: 50.0 mg/kg/injection, schedule: Q01DX009 (ip), vehicle: saline 105 % of control | [5] 107 % of control and 110 % of control

CCC(=O)OCc1ccc(Cl)cc1
inactive: [6] 97 % of control | [7] 101 % of control | [8] 95 % of control | [9] 96 % of control | [10] 94 % of control | [11] 95 % of control

Cc1ccc(C)c(C(C)NC(=O)NCCCl)c1 (stereo not given)
inactive: [7] 91 % of control | [9] 88 % of control | [11] 96 % of control

CCN(CC)CC(C)(C)/C=N/N=C(N)N
inactive: dose: 15.0 mg/kg/injection, schedule: Q01DX Z (ip), vehicle: saline 98 % of control | dose: 30.0 mg/kg/injection, schedule: Q01DX Z (ip), vehicle: saline 91 % of control | dose: 60.0 mg/kg/injection, schedule: Q01DX Z (ip), vehicle: saline 105 % of control

O=C(O)C1CCCCC1C(=O)Nc1ccc(Cl)cc1 (stereo not given)
inactive: dose: 50.0 mg/kg/injection, schedule: Q01DX009 (ip), vehicle: saline with Tween-80 88 % of control | dose: 100.0 mg/kg/injection, schedule: Q01DX009 (ip), vehicle: saline with Tween-80 87 % of control | [12] 96 % of control | dose: 200.0 mg/kg/injection, schedule: Q01DX009 (ip), vehicle: saline with Tween-80 98 % of control | [13] 97 % of control

Cc1c(Cl)c(C)c(Cl)c(O)c1Cl
inactive: [12] 97 % of control | [13] 96 % of control | dose: 400.0 mg/kg/injection, schedule: Q04DX003 (ip), vehicle: saline with Tween-80 97 % of control

CCCCCCC(=O)C(C)C
inactive: [6] 93 % of control | [7] 89 % of control | [8] 96 % of control | [9] 88 % of control | [10] 106 % of control | [11] 98 % of control

CCC1CC[N-]CC1.CCC1CC[N-]CC1.[Cl][Pt+2]([Cl])([Cl])[Cl]
inactive: dose: 6.25 mg/kg/injection, schedule: Q01DX009 (ip), vehicle: saline 103 % of control | dose: 12.5 mg/kg/injection, schedule: Q01DX009 (ip), vehicle: saline 110 % of control | dose: 12.5 mg/kg/injection, schedule: Q04DX003 (ip), vehicle: saline 97 % of control | [4] 86 % of control | dose: 25.0 mg/kg/injection, schedule: Q04DX003 (ip), vehicle: saline 95 % of control | dose: 50.0 mg/kg/injection, schedule: Q04DX003 (ip), vehicle: saline 104 % of control

Cc1ccc(N=Cc2cc(Br)cc(Br)c2O)cc1.Cc1ccc(N=Cc2cc(Br)cc(Br)c2O)cc1.[Co]
inactive: dose: 25.0 mg/kg/injection, schedule: Q04DX003 (ip), vehicle: saline with Tween-80 104 % of control | dose: 50.0 mg/kg/injection, schedule: Q04DX003 (ip), vehicle: saline with Tween-80 100 % of control | [12] 100 % of control

CC[P+](CCCCCCCCC[P+](CC)(Cc1ccccc1)c1ccccc1)(Cc1ccccc1)c1ccccc1 (stereo not given)
inactive: [14] 105 % of control

Cn1cc(C2=CC(=O)C=CC2=O)c2ccccc21
inactive: [14] 102 % of control | dose: 10.0 mg/kg/injection, schedule: Q01DX001 (ip), vehicle: saline 111 % of control | dose: 20.0 mg/kg/injection, schedule: Q01DX001 (ip), vehicle: saline 104 % of control | dose: 40.0 mg/kg/injection, schedule: Q01DX001 (ip), vehicle: saline 98 % of control

Nc1c(Br)cc(Br)c2c1-c1ccccc1C2=O
inactive: [2] 98 % of control | [3] 104 % of control | [15] 102 % of control

COc1ccc2c(c1)N(C(=O)C(Cl)(Cl)Cl)Cc1ccccc1C2=O
inactive: [5] 87 % of control | [16] 93 % of control | dose: 400.0 mg/kg/injection, schedule: Q01DX009 (ip), vehicle: saline 96 % of control

Nc1nc(=S)[nH]c(N)c1N
inactive: dose: 125.0 mg/kg/injection, schedule: Q01DX Z (ip), vehicle: methylcellulose (MC) 93 % of control

NC(=O)c1ccccc1NC(=O)Nc1ccccc1
inactive: [6] 98 % of control | [7] 102 % of control | [8] 94 % of control | [9] 96 % of control | [10] 89 % of control | [11] 94 % of control

CCCCCCCCCCCCCCCC(=O)N(CCCN)CCCN(CCCN)C(=O)CCCCCCCCCCCCCCC
inactive: [17] 98 % of control

N#CC1CS(=O)(=O)C1
inactive: [5] 108 % of control | [17] 106 % of control | [16] 103 % of control | dose: 200.0 mg/kg/injection, schedule: Q04DX003 (ip), vehicle: saline 101 % of control | dose: 400.0 mg/kg/injection, schedule: Q04DX003 (ip), vehicle: saline 102 % of control

O=C(Nc1ccc(Cl)cc1Cl)Sc1ccc(Cl)cc1
inactive: [6] 91 % of control | [8] 96 % of control | [10] 88 % of control

CCN1CCN(CC)C1=S
inactive: dose: 50.0 mg/kg/injection, schedule: Q04DX002 (ip), vehicle: Klucel (hydroxypropylcellulose) (HPC) 114 % of control | dose: 100.0 mg/kg/injection, schedule: Q04DX002 (ip), vehicle: Klucel (hydroxypropylcellulose) (HPC) 90 % of control | dose: 200.0 mg/kg/injection, schedule: Q04DX002 (ip), vehicle: Klucel (hydroxypropylcellulose) (HPC) 109 % of control

NC(=S)c1[nH]cnc1N
inactive: dose: 27.0 mg/kg/injection, schedule: Q01DX015 (ip), vehicle: saline 95 % of control | dose: 40.0 mg/kg/injection, schedule: Q01DX015 (ip), vehicle: saline 93 % of control | dose: 60.0 mg/kg/injection, schedule: Q01DX015 (ip), vehicle: saline 101 % of control | dose: 100.0 mg/kg/injection, schedule: Q01DX001 (ip), vehicle: other 98 % of control | dose: 100.0 mg/kg/injection, schedule: Q01DX001 (ip), vehicle: saline 110 % of control | dose: 200.0 mg/kg/injection, schedule: Q01DX001 (ip), vehicle: other 95 % of control | dose: 400.0 mg/kg/injection, schedule: Q01DX001 (ip), vehicle: other 103 % of control

COc1ccc(OC)c(NC(=O)c2cccc(F)c2)c1
inactive: [6] 97 % of control | [8] 101 % of control | [10] 100 % of control

O=c1ccnc(SCc2ccccc2Cl)[nH]1
inactive: dose: 100.0 mg/kg/injection, schedule: Q01DX Z (ip), vehicle: methylcellulose (MC) 91 % of control | dose: 200.0 mg/kg/injection, schedule: Q01DX Z (ip), vehicle: methylcellulose (MC) 91 % of control

O=[N+]([O-])c1ccc(N/N=C\C2CC=C3c4ccccc4CCC3C2/C=N\Nc2ccc([N+](=O)[O-])cc2[N+](=O)[O-])c([N+](=O)[O-])c1 (stereo not given)
inactive: [1] 89 % of control | [2] 93 % of control | [3] 103 % of control | [15] 108 % of control
